Laboratory results reported in ChEMBL document CHEMBL1142990, “Self-organizing maps for identification of new inhibitors of P-glycoprotein” (J Med Chem, 2007).

Biological target: ATP-dependent translocase ABCB1 (Homo sapiens, UniProt P08183)
Assay: Inhibition of P-glycoprotein expressed in MDR CCRF vcr1000 cells by daunorubicin efflux assay

Sequence of ATP-dependent translocase ABCB1 (P08183 whole entry): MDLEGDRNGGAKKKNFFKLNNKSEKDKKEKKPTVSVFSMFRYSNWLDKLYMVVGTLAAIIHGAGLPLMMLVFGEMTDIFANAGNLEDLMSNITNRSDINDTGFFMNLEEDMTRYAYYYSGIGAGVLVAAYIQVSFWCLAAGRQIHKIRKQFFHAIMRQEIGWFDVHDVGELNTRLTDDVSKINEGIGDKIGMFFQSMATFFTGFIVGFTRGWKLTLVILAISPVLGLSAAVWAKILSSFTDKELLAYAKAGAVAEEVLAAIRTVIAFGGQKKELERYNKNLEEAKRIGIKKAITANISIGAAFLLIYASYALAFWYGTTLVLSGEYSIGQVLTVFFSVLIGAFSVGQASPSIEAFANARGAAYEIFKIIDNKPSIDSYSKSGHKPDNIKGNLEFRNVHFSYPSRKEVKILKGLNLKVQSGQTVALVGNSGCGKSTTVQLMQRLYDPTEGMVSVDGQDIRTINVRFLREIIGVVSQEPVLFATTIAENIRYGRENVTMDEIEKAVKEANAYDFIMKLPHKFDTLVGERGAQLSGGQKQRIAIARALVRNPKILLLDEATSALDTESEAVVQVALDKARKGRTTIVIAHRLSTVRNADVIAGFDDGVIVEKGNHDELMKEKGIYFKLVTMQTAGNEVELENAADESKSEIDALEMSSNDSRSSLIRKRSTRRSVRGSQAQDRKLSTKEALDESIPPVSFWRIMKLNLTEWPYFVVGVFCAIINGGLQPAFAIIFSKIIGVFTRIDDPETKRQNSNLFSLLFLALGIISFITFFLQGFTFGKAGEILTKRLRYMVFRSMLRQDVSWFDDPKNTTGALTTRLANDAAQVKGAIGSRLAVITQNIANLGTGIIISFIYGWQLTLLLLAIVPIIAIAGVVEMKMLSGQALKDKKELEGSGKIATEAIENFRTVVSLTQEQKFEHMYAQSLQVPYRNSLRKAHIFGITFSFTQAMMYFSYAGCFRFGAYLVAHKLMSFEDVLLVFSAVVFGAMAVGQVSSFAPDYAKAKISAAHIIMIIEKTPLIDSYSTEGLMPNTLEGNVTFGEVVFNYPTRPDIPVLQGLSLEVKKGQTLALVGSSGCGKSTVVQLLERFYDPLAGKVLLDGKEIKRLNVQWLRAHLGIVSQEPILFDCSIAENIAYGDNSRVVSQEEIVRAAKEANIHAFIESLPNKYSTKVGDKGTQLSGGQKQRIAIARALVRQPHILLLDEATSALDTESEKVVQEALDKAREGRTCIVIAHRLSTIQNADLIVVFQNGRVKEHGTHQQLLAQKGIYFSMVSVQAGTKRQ

Compound	EC50 [nM]
CC(C)N(CC(O)COc1ccccc1C(=O)CCc1cccc2ccccc12)C(C)C (stereo not given)	465
CCc1ccc(N2C(=O)c3ccccc3NC2c2ccc(OCC(C)C)cc2)cc1 (stereo not given)	1210
COc1ccc(-n2c(C3=NNC(=O)CC3)n[nH]c2=S)cc1	> 250000
O=C(N/N=C/c1c(F)cccc1Cl)C(=O)N1CCCCCC1	159000
Cn1cc(I)c(C(=O)NNC(=O)c2ccnn2C)n1	> 500000
O=C(CCc1cccc2ccccc12)c1ccccc1OCC(O)CNCCC(c1ccccc1)c1ccccc1 (stereo not given)	723
O=C1CC(CN2CCCCC2)Oc2ccccc21 (stereo not given)	176000
COc1ccc(C2Nc3ccccc3C(=O)N2c2ccc(NC(C)=O)cc2)cc1 (stereo not given)	20900
CCC(=O)c1ccccc1OCC(O)CN1CCOCC1 (stereo not given)	67000
CCN(CC)CC(O)COc1ccccc1C(=O)CCc1ccccc1 (stereo not given)	907
CCN(CC)CC(O)COc1ccccc1C(=O)c1ccccc1 (stereo not given)	2320
CC(=O)c1ccccc1OCC(O)CN1CCCCC1 (stereo not given)	32000
O=C(C1Oc2ccccc2C1CCc1ccccc1)N1CCCCC1 (stereo not given)	6660
O=C(CCc1cccc2ccccc12)c1ccccc1OCC(O)CN1CCCCC1 (stereo not given)	172
CN(C)c1ccc(-c2nc(C(F)(F)F)nc(C(F)(F)F)n2)cc1	> 100000
CCCNC[C@@H](O)c1oc2ccccc2c1CCc1ccccc1	1100
CCC(C)c1ccc(N2C(=O)c3ccccc3NC2c2ccc(C(C)C)cc2)cc1 (stereo not given)	290
Cc1ccc(-c2n[nH]c3c2C(c2ccc(N(C)C)cc2)C(C#N)=C(N)O3)cc1 (stereo not given)	3080
CCCN(C)CC(O)COc1ccccc1C(=O)CCc1ccccc1 (stereo not given)	416
CC(=O)c1c(C)cc(C)c(CSc2nc3ccc(NC(=O)c4ccc(C(C)(C)C)cc4)cc3s2)c1C	280
CC(=O)OC(COc1ccccc1C(=O)CCc1ccccc1)CN1CCCCC1 (stereo not given)	336
OC(COc1ccccc1C(O)CCc1ccccc1)CN1CCOCC1 (stereo not given)	9540
O=C(CCc1ccccc1)c1ccccc1OCC(O)CNc1ccccc1 (stereo not given)	6470
O=C(CCc1ccccc1)c1ccccc1OCC(O)CNc1ccc(C(F)(F)F)cc1 (stereo not given)	8490
Cc1ccc(N2CCN(CC(O)COc3cccc4c3C(=O)C(Cc3ccccc3)C4)CC2)c(C)c1 (stereo not given)	167
O=C(CCc1ccccc1)c1ccccc1OCC(O)CNC1CCCCC1 (stereo not given)	341

Other lines, results leading:

EC50 [nM]	Compound
70	O=C(CCc1ccccc1)c1ccccc1OCC(O)CN1CCN(c2ccc(F)cc2)CC1 (stereo not given)
730	O=C(CCc1cccc2ccccc12)c1ccccc1OCC(O)CN1CCOCC1 (stereo not given)
599	O=C(CCc1ccccc1)c1ccccc1OCC(O)CN1CCCCC1 (stereo not given)
915	CC(C)N(CC(O)COc1ccc(C(=O)CCc2ccccc2)cc1)C(C)C (stereo not given)
259	O=C(CCc1ccccc1)c1ccccc1OCC(O)CN1CCC(Cc2ccccc2)CC1 (stereo not given)
10100	CC(=O)c1cccc(OCC(O)CN2CCN(c3ccc(F)cc3)CC2)c1 (stereo not given)
2090	CC(=O)c1ccccc1OCC(O)CN1CCN(c2ccc(F)cc2)CC1 (stereo not given)
256	COc1ccc(N2CCN(CC(O)COc3ccccc3C(=O)CCc3ccccc3)CC2)cc1 (stereo not given)
1550	CC(=O)c1ccc(OCC(O)CN2CCN(c3ccccc3C)CC2)cc1 (stereo not given)
137	Cc1cccc(N2CCN(CC(O)COc3cccc(C(=O)CCc4ccccc4)c3)CC2)c1C (stereo not given)
227	Cc1cccc(N2CCN(CC(O)COc3ccc(C(=O)CCc4ccccc4)cc3)CC2)c1C (stereo not given)
147	O=C(c1ccccc1)c1ccccc1OCC(O)CN1CCN(c2ccc(F)cc2)CC1 (stereo not given)
424	O=C(CCc1ccccc1)c1cccc(OCC(O)CN2CCCCC2)c1 (stereo not given)
172	O=C(CCc1ccccc1)c1cc(OCc2ccccc2)ccc1OCC(O)CN1CCCCC1 (stereo not given)
2540	O=C(CCc1ccccc1)c1ccc(OCC(O)CN2CCN(c3ccc(F)cc3)CC2)cc1 (stereo not given)
610	O=C(CCc1ccccc1)c1ccccc1OCC(O)CN1CCN(c2ccccc2)CC1 (stereo not given)
74	Cc1ccccc1N1CCN(CC(O)COc2cccc(C(=O)CCc3ccccc3)c2)CC1 (stereo not given)
27	Cc1ccccc1N1CCN(CC(O)COc2ccccc2C(=O)CCc2ccccc2)CC1 (stereo not given)
671	OC(COc1ccccc1C(O)CCc1ccccc1)CN1CCN(c2ccc(F)cc2)CC1 (stereo not given)
